According to patent publication US10508109B2 (priority 2015, dated 2019):
Structures can show the parent of a compound that is named as a salt. Where two headings read alike, the source gives them in different places.

Assays:
SUV39H2 = SUV39H2 (Homo sapiens (Human), UniProt Q9H5I1); settings: read-out: IC50 (μM) Suv 39H2 assay; enzyme assay
PC14 = assay: Cell-based assay, anti-proliferative activity (Cell Counting Kit-8, 72 hours); settings: Homo sapiens, PC-14, PC14 cells, read-out: IC50 (μM) PC14
In short: (§1)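 Cells were seeded in 96-well plates and exposed to the inhibitors for 72 hours, after which growth was measured with Cell Counting Kit-8. IC50 was derived from a serial dilution series of 0, 1.5625, 3.125, 6.25, 12.5, 25, 50 and 100 micro-M.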

CCD-18Co = assay: as above; settings: Homo sapiens, CCD-18Co cells, read-out: IC50 (μM) CCD-18Co
In short: as §1

HCT-116 = assay: as above; settings: Homo sapiens, HCT-116 cells, read-out: IC50 (μM) HCT-116
In short: as §1

HFL1 = assay: as above; settings: Homo sapiens, HFL1 cells, read-out: IC50 (μM) HFL1
In short: as §1

A549 = assay: as above; settings: Homo sapiens, A549 cells, read-out: IC50 (μM) A549
In short: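 Cells were seeded in 96-well plates and exposed to candidate inhibitors. Cellular growth was then determined with the colorimetric kit, and IC50 values were calculated from the growth data.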

SUV39H2, sequence (Q9H5I1 whole entry): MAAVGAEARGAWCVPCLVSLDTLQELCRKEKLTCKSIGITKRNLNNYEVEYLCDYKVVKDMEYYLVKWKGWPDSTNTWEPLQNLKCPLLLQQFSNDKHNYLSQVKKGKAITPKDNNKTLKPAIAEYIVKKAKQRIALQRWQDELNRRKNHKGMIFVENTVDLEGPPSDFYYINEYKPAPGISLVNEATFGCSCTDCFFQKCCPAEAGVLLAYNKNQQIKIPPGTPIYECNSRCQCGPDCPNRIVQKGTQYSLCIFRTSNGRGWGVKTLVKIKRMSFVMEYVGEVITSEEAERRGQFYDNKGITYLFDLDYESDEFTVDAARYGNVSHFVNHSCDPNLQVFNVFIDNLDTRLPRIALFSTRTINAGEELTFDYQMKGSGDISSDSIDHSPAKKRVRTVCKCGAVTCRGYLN

Structure (SMILES) | IC50 (SUV39H2) | IC50 (PC14; Cell Counting Kit-8, 72 hours) | IC50 (CCD-18Co; Cell Counting Kit-8, 72 hours) | IC50 (HCT-116; Cell Counting Kit-8, 72 hours) | IC50 (HFL1; Cell Counting Kit-8, 72 hours) | IC50 (A549; Cell Counting Kit-8, 72 hours) | IC50 (PC14; 72 hours, Cell Counting Kit-8) | IC50 (CCD-18Co; 72 hours, Cell Counting Kit-8) | IC50 (HCT-116; 72 hours, Cell Counting Kit-8) | IC50 (HFL1; 72 hours, Cell Counting Kit-8) | IC50 (A549; 72 hours, Cell Counting Kit-8)
COc1cc(OC)c(-c2cn3ccc(N4CCCN(S(=O)(=O)C5CC5)CC4)cc3n2)cc1Cl [Example 187, 2-(5-chloro-2,4-dimethoxyphenyl)-7-[4-(cyclopropylsulfonyl)-1,4-diazepan-1-yl]imidazo[1,2-a]pyridine] | 0.00574 µM | 1.4 µM | 5 µM | 1.9 µM | 2.1 µM | 2.1 µM |  |  |  |  | 
COc1cc(OC)c(-c2cn3cc(NCCN)c(N4CCNCC4)nc3n2)cc1Cl [Example 223, N^1-(2-(5-chloro-2,4-dimethoxy-phenyl)-7-(piperazin-1-yl)imidazo[1,2-a]pyrimidin-6-yl)ethane-1,2-diamine] | 0.00866 µM |  |  |  |  |  | 10 µM | 10 µM | 10 µM | 10 µM | 10 µM
COc1cc(OC)c(-c2cn3ccc(N4CCN(S(=O)(=O)N(C)C)CC4)nc3n2)cc1Cl [Example 180, 4-[2-(5-chloro-2,4-dimethoxyphenyl)imidazo[1,2-a]pyrimidin-7-yl]-N,N-dimethylpiperazine-1-sulfonamide] | 0.0241 µM | 1.6 µM | 2.6 µM | 1.5 µM | 1.7 µM | 1.1 µM |  |  |  |  | 
COc1cc(OC)c(-c2cn3ccc(N4CC[C@H](NCc5ccccc5)C4)cc3n2)cc1Cl [Example 301, (S)—N-benzyl-1-(2-(5-chloro-2,4-dimethoxyphenyl)imidazo[1,2-a]pyridin-7-yl)pyrrolidin-3-amine] | 0.0107 µM |  |  |  |  |  | 1.5 µM | 1.1 µM | 0.79 µM | 0.69 µM | 1.4 µM
COc1cc(OC)c(-c2cn3ccc(N4CCN(c5ccc(C#N)cn5)CC4)cc3n2)cc1Cl [Example 293, 6-(4-(2-(5-chloro-2,4-dimethoxyphenyl)imidazo[1,2-a]pyridin-7-yl)-piperazin-1-yl)nicotinonitrile] | 0.0226 µM |  |  |  |  |  | 1 µM | 0.62 µM | 0.33 µM | 1.3 µM | 0.67 µM
COCCCN1CCN(c2ccn3cc(-c4cc(Cl)c(OC)cc4OC)nc3c2)CC1 [Example 96, 2-(5-chloro-2,4-dimethoxyphenyl)-7-(4-(3-methoxypropyl)piperazin-1-yl)imidazo[1,2-a]pyridine] | 0.00833 µM | 6.4 µM | 6.8 µM | 9 µM | 8.4 µM | 6.9 µM |  |  |  |  | 
COc1cc(OC)c(-c2cn3cc(NCCN)c(OC)cc3n2)cc1Cl [Example 75, N^1-(2-(5-chloro-2,4-dimethoxyphenyl)-7-methoxyimidazo[1,2-a]-pyridin-6-yl)ethane-1,2-diamine] | 0.00271 µM | 5.7 µM | 7.2 µM | 6.7 µM | 3.5 µM | 6.9 µM |  |  |  |  | 
COc1cc(OC)c(-c2cn3ccc(N(C)C)cc3n2)cc1Cl [Example 22, 2-(5-chloro-2,4-dimethoxyphenyl)-N,N-dimethylimidazo[1,2-a]pyridin-7-amine hydrobromide] | 0.00515 µM | 1.6 µM | 3.6 µM | 3.3 µM | 1.7 µM | 1.6 µM |  |  |  |  | 
COc1cc(OC)c(-c2cn3ccc(N4CCN(C(=O)C5CC5)CC4)cc3n2)cc1Cl [Example 238, (4-(2-(5-chloro-2,4-dimethoxyphenyl)imidazo[1,2-a]pyridine-7-yl)piperazin-1-yl)(cyclopropyl)methanone] | 0.00416 µM |  |  |  |  |  | 1.6 µM | 3 µM | 2.9 µM | 2.4 µM | 2.5 µM
COc1cc(OC)c(-c2cn3ccc(N4CCNC4=O)cc3n2)cc1Cl [Example 138, 1-(2-(5-chloro-2,4-dimethoxyphenyl)imidazo[1,2-a]pyridin-7-yl)-imidazolidin-2-one] | 0.0201 µM | 3.6 µM | 2.2 µM | 16 µM | 5.5 µM | 5.2 µM |  |  |  |  | 
COc1cc(OC)c(-c2cn3ccc(N4CC[C@H](NCc5ccccn5)C4)cc3n2)cc1Cl [Example 299, (S)-1-(2-(5-chloro-2,4-dimethoxyphenyl)imidazo[1,2-a]pyridin-7-yl)-N-(pyridin-2-ylmethyl)pyrrolidin-3-amine] | 0.00721 µM |  |  |  |  |  | 3.5 µM | 5.5 µM | 4.5 µM | 6.2 µM | 5.3 µM
COc1cc(OC)c(-c2cn3ccc(N4CCN(S(=O)(=O)C5CC5)CC4)nc3n2)cc1Cl [Example 146, 2-(5-chloro-2,4-dimethoxyphenyl)-7-[4-(cyclopropylsulfonyl)piperazin-1-yl]imidazo[1,2-a]pyrimidine] | 0.0247 µM | 0.24 µM | 4.2 µM | 0.69 µM | 1.4 µM | 0.49 µM |  |  |  |  | 
COc1ccc(CN[C@H]2CCN(c3ccn4cc(-c5cc(Cl)c(OC)cc5OC)nc4c3)C2)cc1 [Example 306, (S)-1-(2-(5-chloro-2,4-dimethoxyphenyl)imidazo[1,2-a]pyridin-7-yl)-N-(4-methoxybenzyl)pyrrolidin-3-amine] | 0.00881 µM |  |  |  |  |  | 1.4 µM | 1.4 µM | 0.69 µM | 0.72 µM | 1.3 µM
COc1cc(OC)c(-c2cn3ccc(N4CCN(S(=O)(=O)C5CC5)C(CO)C4)cc3n2)cc1Cl (stereo not drawn) [Example 236, (4-(2-(5-chloro-2,4-dimethoxyphenyl)imidazo[1,2-a]pyridin-7-yl)-1-(cyclopropylsulfonyl)piperazin-2-yl)methanol] | 0.00655 µM |  |  |  |  |  | 3.3 µM | 4 µM | 4.4 µM | 4.1 µM | 4.8 µM
COc1cc(OC)c(-c2cn3ccc(N[C@H]4CC[C@H](Nc5ccccn5)CC4)cc3n2)cc1Cl [Example 287, N^1-(2-(5-chloro-2,4-dimethoxyphenyl)imidazo[1,2-a]pyridin-7-yl)-N^4-(pyridin-2-yl)-trans-cyclohexane-1,4-diamine] | 0.0327 µM |  |  |  |  |  | 0.94 µM | 0.81 µM | 0.91 µM | 0.78 µM | 0.8 µM
COc1cc(OC)c(-c2cn3ccc(N4CC[C@H](NCc5ccc(C(F)(F)F)cc5)C4)cc3n2)cc1Cl [Example 303, (S)-1-(2-(5-chloro-2,4-dimethoxyphenyl)imidazo[1,2-a]pyridin-7-yl)-N-(4-(trifluoromethyl)benzyl)pyrrolidin-3-amine] | 0.0278 µM |  |  |  |  |  | 0.95 µM | 0.86 µM | 0.7 µM | 0.68 µM | 1 µM
COc1cc(C)c(Cl)cc1-c1cn2ccc(N3CCOCC3)cc2n1 [Example 230, 4-(2-(5-chloro-2-methoxy-4-methylphenyl)imidazo[1,2-a]pyridin-7-yl)morpholine] | 0.0183 µM |  |  |  |  |  | 1.6 µM | 3.5 µM | 4 µM | 2.8 µM | 4.4 µM
COc1cc(OC)c(-c2cn3ccc(NC(=O)[C@@H]4CCCN4C)cc3n2)cc1Cl [Example 263, (S)—N-(2-(5-chloro-2,4-dimethoxyphenyl)imidazo[1,2-a]pyridin-7-yl)-1-methylpyrrolidine-2-carboxamide] | 0.065 µM |  |  |  |  |  | 1.7 µM | 1.4 µM | 0.99 µM | 1.8 µM | 1.8 µM
COc1cc(OCCCN(C)C)c(-c2cn3ccc(N4CCC(NS(=O)(=O)C5CC5)CC4)cc3n2)cc1Cl [Example 163, N-(1-(2-(5-chloro-2-(3-(dimethylamino)propoxy)-4-methoxyphenyl)imidazo-[1,2-a]pyridin-7-yl)piperidin-4-yl)cyclopropanesulfonamide] | 0.0206 µM | 3.4 µM | 5.6 µM | 5.9 µM | 2.7 µM | 6.4 µM |  |  |  |  | 
COc1cc(OC)c(-c2cn3ccc(N4CCN(S(=O)(=O)N(C)C)CC4)cc3n2)cc1Cl [Example 171, 4-[2-(5-chloro-2,4-dimethoxyphenyl)imidazo[1,2-a]pyridin-7-yl]-N,N-dimethylpiperazine-1-sulfonamide] | 0.0135 µM | 2 µM | 0.84 µM | 0.94 µM | 1.2 µM | 0.83 µM |  |  |  |  | 
COc1cc(OC)c(-c2cn3cc(NCCN)c(N4CCN(C(=O)OC(C)(C)C)CC4)nc3n2)cc1Cl [Example 221, tert-butyl 4-(6-((2-aminoethyl)amino)-2-(5-chloro-2,4-dimethoxyphenyl)imidazo[1,2-a]pyrimidin-7-yl)piperazine-1-carboxylate] | 0.0118 µM |  |  |  |  |  | 9.5 µM | 5.6 µM | 5.4 µM | 4.9 µM | 10 µM
